Each structure is given as a SMILES string.

A word on the IC50: it is the concentration that inhibits the measured activity by half.

The test deals with T1, Interleukin-1 receptor-associated kinase 4 (Homo sapiens, UniProt Q9NWZ3).
T1 sequence (Q9NWZ3 whole entry): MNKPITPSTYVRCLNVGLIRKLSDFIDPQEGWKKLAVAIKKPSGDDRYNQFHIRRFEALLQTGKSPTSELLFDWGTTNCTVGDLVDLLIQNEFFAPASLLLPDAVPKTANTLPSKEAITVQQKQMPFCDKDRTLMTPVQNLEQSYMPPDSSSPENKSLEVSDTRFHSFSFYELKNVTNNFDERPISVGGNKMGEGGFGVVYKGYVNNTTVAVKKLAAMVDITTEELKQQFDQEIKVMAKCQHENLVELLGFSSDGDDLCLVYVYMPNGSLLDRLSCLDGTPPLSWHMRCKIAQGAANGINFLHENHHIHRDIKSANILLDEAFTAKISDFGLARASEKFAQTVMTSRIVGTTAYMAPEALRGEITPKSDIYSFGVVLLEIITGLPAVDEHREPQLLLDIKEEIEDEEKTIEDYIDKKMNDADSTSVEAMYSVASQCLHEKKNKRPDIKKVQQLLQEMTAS
The test is described as follows: IRAK4 Inhibition Assay. On the procedure: The assays were performed in U-bottom 384-well plates. The final assay volume was 30 μL prepared from 15 μL additions of enzyme and substrates (fluoresceinated peptide and ATP) and test compounds in assay buffer (20 mM HEPES pH 7.2, 10 mM MgCl2, 0.015% Brij 35 and 4 mM DTT). The reaction was initiated by the combination of IRAK4 with substrates and test compounds. The reaction mixture was incubated at room temperature for 60 min. and terminated by adding 45 μL of 35 mM EDTA to each sample. The reaction mixture was analyzed on the Caliper LABCHIP 3000 (Caliper, Hopkinton, MA) by electrophoretic separation of the fluorescent substrate and phosphorylated product. Inhibition data were calculated by comparison to no enzyme control reactions for 100% inhibition and vehicle-only reactions for 0% inhibition. The final concentrations of reagents in the assays are ATP, 500 μM; FL-IPTSPITTTYFFFKKK peptide 1.5 μM; IRAK4, 0.6 nM; and DMSO, 1.6%.
As to `CC(O)CCNC(=O)c1cnc2ccc(-c3cn[nH]c3)cc2c1NC1CC(F)(F)C1` (stereo not drawn) [US12492186, Example 54], the IC50 was 17.6 nM.

With `CC(O)CCNC(=O)c1cnc2ccc(-c3cn[nH]c3)cc2c1NCC(F)F` (stereo not drawn) [US12492186, Example 65], the half-inhibitory concentration (IC50) amounted to 15.2 nM.

In the case of `CC(C)Nc1c(-c2cc(C3CCCCN3)no2)cnc2ccc(-c3cn[nH]c3)cc12` (stereo not drawn) [US12492186, Example 128], the IC50 came to 4.8 nM.

For the origin of these results see BindingDB's records for patent US12492186 (Bristol Myers Squibb, 2025).
